# Test results from patent US20150038541A1, “COMPOSITION AND METHODS FOR CELL MODULATION” (APOSIGNAL BIOSCIENCE LLC, priority 2012, published 2015).
# What was measured:
# HeLa cells [1] = assay: FACS analysis after propidium iodide staining (cell cycle, apoptosis) of HeLa cells; assay type: cell-based, human
# Experimental: FIG. 15 illustrates that AS-7 evokes accumulation HeLa cells in the G0-G1 phase of the cell cycle. HeLa cells were harvested two days after treatment with or without AS-7, stained with propidium iodide and subjected to analysis by FACS (Fluorescence Activated Cell Sorter).
# FIG. 17 illustrates that AS-7 blocks exit from the Go-G1 phase of the cell cycle. HeLa cells were treated with nocodazole which evoked accumulation of the cells in the G2-M phase of the cell cycle (Nocodazole Blocked). The cells were released from the nocodazole block and treated with or without AS-7. After 16 hours the cells were stained with propidium iodide and subjected to analysis by FACS (Fluorescence Activated Cell Sorter).
# The appearance of essentially all of the AS-7 treated cells was indistinguishable from that of the untreated cells.
# A single addition of 10 μM AS-7 for 1 day to 7 or more days was sufficient to evoke accumulation in the Go-G1 phase of the cell cycle (FIGS. 15 and 16) (data not shown). […] HeLa cells were treated with nocodazole (100 ng/ml) for 12 h which evoked accumulation of rounded, loosely attached cells in mitosis. The mitotic cells were harvested and treated with or without 10 μM AS-7 in the absence of nocodazole (Released, 16 hours).
# proteasome = assay: Proteasome activity measured in lysates of treated cells; assay type: cell-based
# Description: The cytotoxic action of bortezomib is known to be mediated by proteasome inhibition and the induction of apoptosis.
# HeLa cells [2] = assay: Cell proliferation (growth rate, crystal violet) of HeLa cells with AS-7 by itself; assay type: cell-based, human
# Experimental: Cell lines were plated at a sparse density in order to measure the rate of growth over a several day interval and obviate the effect of limited culture surface on the growth rate. The impact of AS-7 on cell proliferation became clear after two days and was dramatic after several days. While the impact of AS-7 was modest after two days, it became substantial after more than two days because the reduction in growth rate has the greatest impact on cell number after the cultures have expanded by several population doublings. […] AS-7 inhibited the rate of cell proliferation by 67% at a concentration of approximately 10 μM (FIG. 10). […] The following cell lines were used to determine the effect of AS-7 on the rate of proliferation: HeLa, melanoma […], ovarian A2780, and breast T47D. All cell line were grown in culture medium (RPMI 1640 for the breast cancer cells and Dulbecco's modified Eagle's medium for the other cell lines) containing 10% heat inactivated fetal bovine serum without antibiotics (penicillin and streptomycin).
# ovarian A2780 cells = assay: Cell proliferation (growth rate, crystal violet) of ovarian A2780 cells with AS-7 by itself; assay type: cell-based, human; conditions: 10 μM AS-7, vehicle doubling time 1.0 days
# Experimental: (§1) To examine the effect of AS-7 on the growth of several different cell lines, AS-7 at 10 μM was added to the culture medium the day after seeding the cells. The following cell lines were used to determine the effect of AS-7 on the rate of proliferation: HeLa, melanoma A2620, ovarian A2780, and breast T47D. All cell line were grown in culture medium (RPMI 1640 for the breast cancer cells and Dulbecco's modified Eagle's medium for the other cell lines) containing 10% heat inactivated fetal bovine serum without antibiotics (penicillin and streptomycin). […] The doubling times in HeLa, melanoma, ovarian and breast cancer derived cells were 0.9, 2.5, 1.0, and 1.4 days, respectively. AS-7 increased the doubling times of the HeLa, melanoma, ovarian, and breast cancer derived cells by 1.3, 1.3, 1.6, and 3.1 fold, respectively (FIGS. 11 through 14).
# Melanoma A2620 cells = assay: Cell proliferation (growth rate, crystal violet) of melanoma A2620 cells with AS-7 by itself; assay type: cell-based, human; conditions: 10 μM AS-7, vehicle doubling time 2.5 days
# Experimental: as §1
# T47D cells = assay: MTS cell viability of breast cancer T47D cells, bortezomib with or without AS-7; assay type: cell-based, human; conditions: 10 μM AS-7, data not shown
# Experimental: Breast cancer derived cell lines, T47D and 159C, were seeded in a 96 well tissue culture plate (2000 cells per well). The significance of these two lines of breast cancer derived cell lines is that the T47D cells positive for three markers used to optimize the chemotherapeutic treatment, namely HER2 receptor, estrogen receptor, and progesterone receptor. By contrast to the T47D cells, the 159C cells are negative for the three markers. The compounds, 10 μM AS-7 and a range of bortezomib (BioVision, Inc., Milpitas, Calif.) concentrations were added the following day. After 48 hours, MTS was added and absorbance was measured at 490 nm.
# HeLa cells [3] = assay: Glucose utilization and acid production in HeLa cell culture medium; assay type: cell-based, human; conditions: 10 μM AS-7, after 5 days
# Experimental: FIG. 19 illustrates that AS-7 increases glucose utilization and acid production in HeLa cells. HeLa cells were cultured (100 mm diameter plates) in medium containing 4.5 mg/ml glucose at pH 7.4. After 5 days medium glucose was determined by standard methodology and the pH of the medium was measured with a pH meter.
# Because it was repeatedly observed that AS-7 by itself decreased the pH of the culture medium, it was hypothesized that AS-7 might stimulate glucose utilization and the production of lactic acid, which is a major acidic product of glucose metabolism. HeLa cells were cultured in 100 millimeter diameter tissue culture plates in order to monitor the pH and the glucose concentration of the culture medium. Glucose was quantified with a glucose test strip and meter, as commonly used to monitor fluctuations in blood glucose. A pH meter was used to record the pH of the medium. Control cultures (“Control”) were treated with the appropriate amount of the vehicle used dissolve AS-7. Treated cultures (“AS-7”) incubated with 10 μM AS-7.
# HeLa cells [4] = assay: MTS cell viability of HeLa cells treated with anticancer drug with or without AS-7 (48 hours); assay type: cell-based, human; conditions: HeLa cells; 10 μM AS-7
# [5] = tested on: Multiple myeloma cells (RPMI 8226); assay: MTS cell viability of multiple myeloma cells treated with bortezomib with or without AS-7; assay type: cell-based
# Experimental: Multiple myeloma cells (RPMI 8226) were seeded in a 96 well tissue culture plate (2000 cells per well). The compounds, 10 μM AS-7 and bortezomib at the concentrations indicated in […], were added the following day. AS-7 was prepared as described in Example I above. After 48 hours, MTS was added and absorbance was measured at 490 nm. […] Values in FIG. 2 are relative controls that contained only the vehicle in which the drugs were dissolved. Vehicle had no effect on cell viability. Error bars in FIG. 2 are not visible if they are smaller than the symbols.
smiles,measurement,setting,value
N#Cc1cccc(C(C(=O)NCC(c2ccccc2)c2ccccc2)N(CCc2c[nH]cn2)C(=O)c2ccccc2C(=O)c2ccccc2)c1 (stereo not drawn) [AS-7],"induction of apoptosis (FACS, propidium iodide)","HeLa cells [1]; HeLa cells treated with AS-7 for several days, data not shown",failed to induce apoptosis
same,"cell cycle distribution (FACS, propidium iodide)","HeLa cells [1]; HeLa cells, 10 μM AS-7",evoked the accumulation
same,cell cycle progression after release from nocodazole block,"HeLa cells [1]; HeLa cells, 10 μM AS-7, 16 hours after release",blocked exit from the G0-G1 phase
same,effect on proteasome activity,proteasome; cells treated with 10 ILIM AS-7 alone for various times,no effect
same,effect of AS-7 on proteasome inhibition by bortezomib,proteasome; data not shown,did not increase
same,rate of growth of HeLa cells,HeLa cells [2]; AS-7 alone,moderately decreased
same,"cell viability, microscopic observation of the cultures","HeLa cells [2]; AS-7 by itself, each of the cancer-derived cell lines tested",did not decrease cell viability
same,inhibition of the rate of cell proliferation,"HeLa cells [2]; HeLa cells (FIG. 10), approximately 10 μM AS-7",67%
same,increase of doubling time,"HeLa cells [2]; HeLa cells, 10 μM AS-7, vehicle doubling time 0.9 days",1.3 fold
same,IC50,"HeLa cells [2]; Homo sapiens, HeLa cells (FIG. 10), AS-7 by itself, read-out: IC50 for growth inhibition",~7 µM
same,increase of doubling time,ovarian A2780 cells,1.6 fold
same,increase of doubling time,Melanoma A2620 cells,1.3 fold
same,potentiation of the cytotoxic action of bortezomib,T47D cells,markedly potentiated
same,glucose concentration of the culture medium relative to control,HeLa cells [3],significantly decreased
same,pH of the culture medium relative to control,HeLa cells [3],significantly decreased
same,increase in potency of the cytotoxic action of carfilzomib by AS-7,HeLa cells [4],approximately 3.5 fold
same,potentiation of the cytotoxic action of bortezomib (loss of multiple myeloma cell viability),"[5]; 10 μM AS-7, 48 hours, MTS",markedly potentiates
same,increased potency of the cytotoxic action of bortezomib upon the addition of AS-7,[5]; FIG. 2 as printed (multiple myeloma cells),approximately 3.5 fold
